This note sets out measurements from ChEMBL document CHEMBL1133427, “Membrane-permeant, bioactivatable analogues of cGMP as inducers of cell death in IPC-81 leukemia cells” (Bioorg Med Chem Lett, 2000).

One test is filed under the species Rattus norvegicus. Briefly: Compound was tested as initiator of cell death in IPC-81 leukemia cells; Inactive. It counts as functional, cell-based.
The nature of test [1]: Effective dose of compound required to induce death in IPC-81 leukemia cells; Range 40-80. It counts as functional, cell-based, Rattus norvegicus.

Each structure is given as a SMILES string. Calls of active or inactive are those of the source. No cut-off for these calls is given here.

In the case of `CC(=O)OCOP1(=O)OC[C@@H]2O[C@@H](N3C(Sc4ccc(Cl)cc4)=NC4C(=O)N=C(N)N=C43)[C@H](O)[C@@H]2O1` (stereo partly specified), in the test filed under Rattus norvegicus, the result was inactive.

With `CC(=O)OCOP1(=O)OCC2OC(n3cnc4c(=O)n(C)c(N)nc43)CC(O)C2O1` (stereo unspecified), the result in the test listed under Rattus norvegicus was inactive.

For the compound `CC(=O)OCOP1(=O)OC[C@@H]2O[C@@H](n3c(Br)nc4c(O)nc(N)nc43)[C@H](O)[C@@H]2O1` (stereo partly specified), the result in the test filed under Rattus norvegicus was inactive. In addition, the response in test [1] was half-maximal at 80 µM (EC50).

Turning to `CC(=O)OCOP1(=O)OC[C@@H]2O[C@@H](n3cnc4c(=O)n(C)c(N)nc43)[C@H](O)[C@@H]2O1` (stereo partly specified), the result in the test listed under Rattus norvegicus was inactive. In addition, the midpoint of the response in test [1], the EC50, lay at 80 µM.
